Test results: patent publication US11834430B2, “Compounds useful as inhibitors of isoprenylcysteine carboxyl methyltransferase” (AGENCY FOR SCIENCE, TECHNOLOGY AND RESEARCH, priority 2017, dated 2023)
Where “and” joins values, the source holds several entries; their conditions need not be identical. Equal values may be shown once.

Columns and labels:
[1] = target: human ICMT (Homo sapiens (Human), UniProt O60725); experiment: ICMT biochemical assay (Methyltransferase-Glo)
Description: Recombinant human ICMT was prepared by infection of Sf9 cells with a recombinant baculovirus containing the entire open reading frame of the human ICMT cDNA.
Cells producing ICMT were harvested 66 hours post-infection. The cells are homogenized and resuspended in 5 mM NaHPO4 (pH 7.0), and a cocktail of protease inhibitors. The membrane was pelleted, after removal of nuclei and debris, at 100,000×g for 1 hour. Membranes were resuspended in 5 mM NaHPO4 (pH 7.0) with 5 mM EDTA at 10-12 mg/ml. The suspension was stored at −80° C. in multiple aliquots.
An ICMT enzymatic assay was developed using Promega's Methyltransferase-GloTMreagents. In the assay, ICMT catalyzes the methylation of the N-Acetyl-S-farnesyl-L-cysteine by transferring a methyl group from SAM to the farnesylated cysteine and further converts the SAM to SAH. The methyltransferase activity is measured based on the amount of SAH produced from the reaction through the use of coupling enzymes that convert the SAH to ATP. The MTase-Glo detection solution then catalyzes the formation of light from ATP.
A final concentration of 2.0 μM and 20 μM of SAM and peptide were added and further incubated for 90 minutes at room temperature before adding the MTase Glo and detection reagent. Reaction signals were detected using microplate readers on luminescent mode (Satire Tecan). The IC50 was determined by nonlinear regression, using GraphPad Prism version, 5.03.

[2] = test system: MIAPaCa-2 cells; experiment: Cell proliferation assay (CellTiter-Glo); assay type: cell-based; conditions: Homo sapiens, MIA PaCa-2, 72 h, 3 days
Description: Cell proliferation assay was performed using CellTiter-Glo Luminescent Cell Viability Assay (Promega) following manufacturer's instructions. The MIAPaCa-2 cells (ATCC) were treated with compounds that were serial diluted in the media (DMEM). Plates were incubated for 3 days at 37° C. in 5% CO2. After 3 days, an equal volume of Cell Titer Glo reagent was added. Plates were rocked on a rotator for 2 hours. 100 μL of each well was transferred to a 96-well opaque plate, and luminescence emitted was measured with the Tecan Safire II.

[3] = test system: Prelamin A in MIAPaCa-2 cells; experiment: Prelamin A accumulation assay (Western blot); assay type: cell-based; conditions: various concentrations, 48 hours
Description: The MIAPaCa-2 cells were seeded in 6-well plates. After seeding for 24 hours, the cells were treated with either DMSO or varying concentration of the compound and incubated for 48 hours. The cells were trypsinized and the lysate was extracted with RIPA buffer (Santa Cruz). The total protein concentration of lysate is quantified using the standard Bradford assay (Biorad protein assay, microplate standard assay).
Western blot analysis was performed using antibody against Prelamin A in MIAPaCa cells treated with compound at various concentration for 48 hours. 15.0 μg of cell lysate was run on a SDS-PAGE and then transferred to nitrocellulose membrane. The membrane was then incubated in blocking buffer [PBS (phosphate buffered saline) with 0.1% Tween 20 and 5% dry milk] at room temperature for 1 hour, followed by incubation with Prelamin A antibody (rat monoclonal antibody) at 1:2500 dilution in PBS, 0.1% Tween 20 and 5% dry milk overnight at 4° C., followed by three washes (15 minutes each wash) in PBS, 0.1% Tween 20 on the next day.
The nitrocellulose membrane was then incubated with secondary antibody solution at room temperature for 1 hour, washed three times before developed with enhanced Chemiluminescence (ECL) mixture (Amersham, Aylesbury, United Kingdom), incubated for 5 minutes and exposed using Fluor Chem E System instrument (Protein Simple).

[4] = ICMT membrane extract from Sf-9 cells, 30 min preincubation, 90 min reaction

human ICMT, sequence (O60725 whole entry): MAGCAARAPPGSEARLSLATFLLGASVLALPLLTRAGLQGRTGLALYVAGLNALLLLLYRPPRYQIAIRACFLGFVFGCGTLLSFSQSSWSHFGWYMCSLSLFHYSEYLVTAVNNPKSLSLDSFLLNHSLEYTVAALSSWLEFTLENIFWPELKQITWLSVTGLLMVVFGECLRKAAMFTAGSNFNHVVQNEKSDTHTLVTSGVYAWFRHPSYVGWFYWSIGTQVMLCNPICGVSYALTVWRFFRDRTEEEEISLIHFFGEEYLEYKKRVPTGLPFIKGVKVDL

Row | Structure (SMILES) | IC50 [1, 4] | also measured
1 | Cc1nccn1-c1cc(OCCOc2ccc(C#N)cc2F)ccn1 [Compound 53, 3-fluoro-4-(2-((2-(2-methyl-1H-imidazol-1-yl)pyridin-4-yl)oxy)ethoxy)benzonitrile] | 440 pM | GI50 [2]: 2200 nM
2 | Cn1nccc1-c1cc(OCCOc2ccc(C#N)cc2)ccn1 [Compound 59, 4-(2-((2-(1-methyl-1H-pyrazol-5-yl)pyridin-4-yl)oxy)ethoxy)benzonitrile] | 20000 pM | GI50 [2]: 5520 nM; Prelamin A accumulation (Western blot) [3]: Prelamin A accumulation
3 | Cn1nccc1-c1cc(OCCOc2ccc(C#N)cc2F)ccn1 [Compound 69, 3-fluoro-4-(2-((2-(1-methyl-1H-pyrazol-5-yl)pyridin-4-yl)oxy)ethoxy)benzonitrile] | 2800 pM and 1400 pM and 1500 pM | GI50 [2]: 5050 nM; Prelamin A accumulation (Western blot) [3]: Prelamin A accumulation
4 | Cc1nccn1-c1cc(OCCOc2ccc(C#N)cn2)ccn1 [Compound 70, 6-(2-((2-(2-methyl-1H-imidazol-1-yl)pyridin-4-yl)oxy)ethoxy)nicotinonitrile] | 27000 pM | GI50 [2]: 5990 nM; Prelamin A accumulation (Western blot) [3]: Prelamin A accumulation
5 | Cc1nccn1-c1cccc(OC[C@@H](C)Oc2ccc(C#N)cc2F)c1 [Compound 78, (R)-3-fluoro-4-((1-(3-(2-methyl-1H-imidazol-1-yl)phenoxy)propan-2-yl)oxy)benzonitrile] |  | IC50 ([1]; unit printed in cell (pM)): 75 pM; GI50 [2]: 6020 nM
6 | Cn1nccc1-c1cc(OCCOc2ccc(C#N)cc2)ccc1F [Compound 93, 4-(2-(4-fluoro-3-(1-methyl-1H-pyrazol-5-yl)phenoxy)ethoxy)benzonitrile] | 6600 pM | 
7 | Cn1nccc1-c1cc(F)cc(OCCOc2ccc(C#N)cc2)c1 [Compound 94, 4-(2-(3-fluoro-5-(1-methyl-1H-pyrazol-5-yl)phenoxy)ethoxy)benzonitrile] | 1600 pM | 
8 | Cc1nncn1-c1cc(OCCOc2ccc(C#N)cc2F)ccn1 [Compound 95, 3-fluoro-4-(2-((2-(3-methyl-4H-1,2,4-triazol-4-yl)pyridin-4-yl)oxy)ethoxy)benzonitrile] | 10000 pM | 
9 | Cn1nccc1-c1ccc(F)c(OCCOc2ccc(C#N)cc2)c1 [Compound 96, 4-(2-(2-fluoro-5-(1-methyl-1H-pyrazol-5-yl)phenoxy)ethoxy)benzonitrile] | 400000 to 3e+06 pM | 
10 | Cn1nccc1-c1cc(OCCOc2ncc(C#N)cc2F)ccn1 [Compound 97, 5-fluoro-6-(2-((2-(1-methyl-1H-pyrazol-5-yl)pyridin-4-yl)oxy)ethoxy)nicotinonitrile] | 470000 to 1e+06 pM | 
11 | Cn1nccc1-c1cc(OCCOc2ccc(Cl)cc2C#N)ccn1 [Compound 98, 5-chloro-2-(2-((2-(1-methyl-1H-pyrazol-5-yl)pyridin-4-yl)oxy)ethoxy)benzonitrile] | 10000 pM | 
12 | Cc1nccn1-c1cc(OCCOc2ccc(Cl)cc2C#N)ccn1 [Compound 99, 5-chloro-2-(2-((2-(2-methyl-1H-imidazol-1-yl)pyridin-4-yl)oxy)ethoxy)benzonitrile] | 2600 pM | 
13 | Cn1nccc1-c1cc(OCCOc2ccc(C#N)cc2Cl)ccn1 [Compound 100, 3-chloro-4-(2-((2-(1-methyl-1H-pyrazol-5-yl)pyridin-4-yl)oxy)ethoxy)benzonitrile] | 1800 pM | 
14 | Cn1nccc1-c1cc(OCCOc2ccc(Cl)cc2F)ccn1 [Compound 101, 4-(2-(4-chloro-2-fluorophenoxy)ethoxy)-2-(1-methyl-1H-pyrazol-5-yl)pyridine] | 29000 pM | 
15 | Cc1nccn1-c1cccc(OCCOc2ccc(Cl)cc2F)c1 [Compound 102, 1-(3-(2-(4-chloro-2-fluorophenoxy)ethoxy)phenyl)-2-methyl-1H-imidazole] | 68000 pM | 
16 | Cc1nccn1-c1cc(OCCOc2ccc(Cl)cc2F)ccn1 [Compound 103, 4-(2-(4-chloro-2-fluorophenoxy)ethoxy)-2-(2-methyl-1H-imidazol-1-yl)pyridine] | 3100 pM | 
17 | Cc1nccn1-c1cc(OCCOc2ccc(Br)cc2F)ccn1 [Compound 104, 4-(2-(4-bromo-2-fluorophenoxy)ethoxy)-2-(2-methyl-1H-imidazol-1-yl)pyridine] | 1700 pM | 

Row | Structure (SMILES) | IC50 [1, 4] | also measured
18 | Cn1nccc1-c1cc(F)cc(OCCOc2ccc(C#N)cc2F)c1 [Compound 105, 3-fluoro-4-(2-(3-fluoro-5-(1-methyl-1H-pyrazol-5-yl)phenoxy)ethoxy)benzonitrile] | 6000 pM | 
19 | Cn1nccc1-c1cccc(OCCOc2ccc(C#N)cc2F)n1 [Compound 106, 3-fluoro-4-(2-((6-(1-methyl-1H-pyrazol-5-yl)pyridin-2-yl)oxy)ethoxy)benzonitrile] | 300000 to 1e+06 pM | 
20 | Cn1nccc1-c1cc(OCCOc2ncc(C#N)cc2F)ccc1F [Compound 107, 5-fluoro-6-(2-(4-fluoro-3-(1-methyl-1H-pyrazol-5-yl)phenoxy)ethoxy)nicotinonitrile] | 150000 pM | 
21 | Cc1nccn1-c1cc(OCCOc2ccc(C#N)cc2)ccc1F [Compound 108, 4-(2-(4-fluoro-3-(2-methyl-1H-imidazol-1-yl)phenoxy)ethoxy)benzonitrile] | 51000 pM | 
22 | Cc1nccn1-c1cc(OCCOc2ccc(C#N)cn2)ccc1F [Compound 109, 6-(2-(4-fluoro-3-(2-methyl-1H-imidazol-1-yl)phenoxy)ethoxy)nicotinonitrile] | 170000 pM | 
23 | Cn1nccc1-c1cccc(OCCOc2ccc(Cl)cc2)c1 [Compound 110, 5-(3-(2-(4-chlorophenoxy)ethoxy)phenyl)-1-methyl-1H-pyrazole] | 270000 pM | 
24 | Cc1nccn1-c1cccc(OCCOc2ccc(C#N)cc2C(F)(F)F)c1 [Compound 111, 4-(2-(3-(2-methyl-1H-imidazol-1-yl)phenoxy)ethoxy)-3-(trifluoromethyl)benzonitrile] | 180000 pM | 
25 | Cc1nccn1-c1cccc(OCCOc2ccc(Cl)cc2)c1 [Compound 112, 1-(3-(2-(4-chlorophenoxy)ethoxy)phenyl)-2-methyl-1H-imidazole] | 250000 pM | 
26 | Cn1nccc1-c1cc(OCCOc2ccc(C#N)cc2F)ccc1F [Compound 113, 3-fluoro-4-(2-(4-fluoro-3-(1-methyl-1H-pyrazol-5-yl)phenoxy)ethoxy)benzonitrile] | 22000 pM | 
27 | Cc1nccn1-c1cccc(OCCOc2ccc(F)cc2C#N)c1 [Compound 114, 5-fluoro-2-(2-(3-(2-methyl-1H-imidazol-1-yl)phenoxy)ethoxy)benzonitrile] | 82000 pM | 
28 | Cc1nccn1-c1cc(OCCOc2ccc(Cl)cc2)ccn1 [Compound 115, 4-(2-(4-chlorophenoxy)ethoxy)-2-(2-methyl-1H-imidazol-1-yl)pyridine] | 160000 pM | 
29 | N#Cc1ccc(OCCOc2cccc(-c3ccnn3C3CC3)c2)c(F)c1 [Compound 116, 4-(2-(3-(1-cyclopropyl-1H-pyrazol-5-yl)phenoxy)ethoxy)-3-fluorobenzonitrile] | 9500 pM | 
30 | N#Cc1ccc(OCCOc2cccc(-c3ccnn3C3CC3)c2)cc1 [Compound 117, 4-(2-(3-(1-cyclopropyl-1H-pyrazol-5-yl)phenoxy)ethoxy)benzonitrile] | 55000 pM | 
31 | N#Cc1ccc(OCCOc2cccc(-c3ccnn3C3CC3)c2)c(Cl)c1 [Compound 118, 3-chloro-4-(2-(3-(1-cyclopropyl-1H-pyrazol-5-yl)phenoxy)ethoxy)benzonitrile] | 2200 pM | 
32 | Cc1nccn1-c1cc(OCCOc2ccc(F)cc2C#N)ccn1 [Compound 119, 5-fluoro-2-(2-((2-(2-methyl-1H-imidazol-1-yl)pyridin-4-yl)oxy)ethoxy)benzonitrile] | 80000 pM | 
33 | N#Cc1ccc(OCCOc2ccnc(-n3cnnn3)c2)c(F)c1 [Compound 120, 4-(2-((2-(1H-tetrazol-1-yl)pyridin-4-yl)oxy)ethoxy)-3-fluorobenzonitrile] | 12000 pM | 
34 | Cn1nccc1-c1cc(OCCOc2ccc(Br)cc2F)ccn1 [Compound 121, 4-(2-(4-bromo-2-fluorophenoxy)ethoxy)-2-(1-methyl-1H-pyrazol-5-yl)pyridine] | 70000 pM | 
